Experimental data reported in paper PMC4281022 (Journal of medicinal chemistry, 2013).
“Also recorded” adds a separate entry of the source. Values belong to the molecule of their own block, whether it stands above or below them.

How the values were obtained:
human CB1 [1] = target: T1, human CB1 (Homo sapiens, UniProt P21554); experiment: [3H]CP55940 radioligand displacement at CB1, membranes of CHO-K1 cells; assay type: binding; settings: ratio of Ki values
CB1 receptor = CB1 receptor (Mus musculus, UniProt P47746); experiment: Tetrad test: attenuation of central effects of Δ^9-THC; assay type: in vivo; settings: 10 mg/kg oral, ICR mice
Sequence of CB1 receptor (P47746 whole entry): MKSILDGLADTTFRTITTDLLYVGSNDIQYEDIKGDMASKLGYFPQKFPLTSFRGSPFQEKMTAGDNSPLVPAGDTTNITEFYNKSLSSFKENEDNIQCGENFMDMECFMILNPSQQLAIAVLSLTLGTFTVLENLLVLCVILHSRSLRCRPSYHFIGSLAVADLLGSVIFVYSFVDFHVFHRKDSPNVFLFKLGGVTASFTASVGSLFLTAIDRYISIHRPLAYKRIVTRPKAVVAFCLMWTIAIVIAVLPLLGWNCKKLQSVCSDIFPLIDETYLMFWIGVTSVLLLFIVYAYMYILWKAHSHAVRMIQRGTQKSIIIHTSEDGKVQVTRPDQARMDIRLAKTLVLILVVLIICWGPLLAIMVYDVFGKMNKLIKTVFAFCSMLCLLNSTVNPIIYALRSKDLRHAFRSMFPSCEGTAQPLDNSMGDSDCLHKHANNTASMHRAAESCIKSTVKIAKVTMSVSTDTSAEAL

human CB1 [2] = target: T1, human CB1; experiment: CB1 calcium mobilization assay, antagonist apparent affinity; assay type: cell-based

T1 sequence (P21554 whole entry): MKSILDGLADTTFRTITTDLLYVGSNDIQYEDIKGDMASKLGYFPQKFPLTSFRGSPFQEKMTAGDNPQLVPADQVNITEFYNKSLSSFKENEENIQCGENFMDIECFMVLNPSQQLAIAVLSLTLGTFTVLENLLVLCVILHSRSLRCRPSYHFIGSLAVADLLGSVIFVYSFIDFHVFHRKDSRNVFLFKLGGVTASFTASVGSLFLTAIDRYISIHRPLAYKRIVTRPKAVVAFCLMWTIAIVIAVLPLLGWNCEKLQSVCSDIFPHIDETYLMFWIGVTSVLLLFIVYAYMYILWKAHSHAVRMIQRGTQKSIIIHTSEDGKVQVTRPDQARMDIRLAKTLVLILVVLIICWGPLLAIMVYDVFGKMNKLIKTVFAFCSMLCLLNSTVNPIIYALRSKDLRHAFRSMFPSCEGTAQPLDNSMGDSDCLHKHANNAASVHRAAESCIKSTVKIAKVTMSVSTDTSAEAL

Selectivity for CB1 over CB2 (human CB1 [1]): > 50 fold
Effects in tetrad tests by itself (CB1 receptor; in combination with vehicle): did not produce any significant effects
Molecule: CCCCC(=O)NC1CCN(c2ncnc3c2nc(-c2ccccc2Cl)n3-c2ccc(Cl)cc2)CC1 [Compound 9, N-{1-[8-(2-Chlorophenyl)-9-(4-chlorophenyl)-9H-purin-6-yl]piperidin-4-yl}pentanamide]
Reversal of the cannabimimetic effects of Δ^9-THC (tetrad) (CB1 receptor; 30 min before 30 mg/kg i.v. Δ^9-THC): without efficacy; also recorded: did not reverse any of the cannabimimetic effects of Δ^9-THC; also recorded: could not be reversed

Kb (human CB1 [2]): 0.789 µM
Molecule: O=C(CCN1CCCCC1)NC1CCN(c2ncnc3c2nc(-c2ccccc2Cl)n3-c2ccc(Cl)cc2)CC1 [Compound 15, N-{1-[8-(2-Chlorophenyl)-9-(4-chlorophenyl)-9H-purin-6-yl]piperidin-4-yl}-3-(piperidin-1-yl)propanamide]

Activity in the calcium mobilization assay (human CB1 [2]): very active
Molecule: O=S(=O)(NC1CCN(c2ncnc3c2nc(-c2ccccc2Cl)n3-c2ccc(Cl)cc2)CC1)C(F)(F)F [Compound 18, N-{1-[8-(2-chlorophenyl)-9-(4-chlorophenyl)-9H-purin-6-yl]piperidin-4-yl,}-1,1,1-trifluoromethanesulfonamide]

Molecule: N-{1-[8-(2-chlorophenyl)-9-(4-chlorophenyl)-9H-purin-6-yl]piperidin-4-yl}aminosulfonamide [Compound 17]
Activity in the calcium mobilization assay (human CB1 [2]): did not have significant activity
